Data set [1] is described as follows: Pharmacokinetics in rats after gastric gavage, ATG concentration in plasma by LC-MS. It is filed as in vivo, SD rats. The protocol:
This test investigated the pharmacokinetics of arctigenin (ATG) and conjugate A04 in rats. The rats were administered by gastric gavage with ATG and A04, the whole blood sample was collected at various time points, the plasma was separated, and the concentration of ATG in plasma was determined by LC-MS.
Before the test, the rats were fasted for 12 hours, with free access to water, and were fed 2 hours after administration.
Blood sampling time points: 0.5, 1.0, 2.0, 4.0, 6.0, 8.0 and 12 h after administration by gastric gavage.
0.5 mL venous blood was taken from the posterior venous plexus of the rat's eyeball at the above set time points, put in a heparinized tube, centrifuged for 5 min at 11000 rpm to separate the plasma, and froze in a refrigerator at −20° C.
200 μL acetonitrile was added into 100 μL plasma samples, vortex mixed for 1 min, and centrifuged for 5 min at 11000 rpm; all the supernatant was taken out and put in a 10 mL test tube, dried in an airflow at 40° C., dissolved in 100 μL acetonitrile-water (1:9, v/v), and 10 μL was taken for UPLC/Q-TOF MS analysis.

Data set [2] has as its system drosophila Alzheimer's disease model wherein humanized A342 was overexpressed. Put plainly: Pavlovian olfactory memory test, rescue of memory impairment in drosophila AD model. The data set is classed as in vivo. An excerpt: A drosophila Alzheimer's disease model wherein humanized A342 was overexpressed (the model drosophila has significant learning and memory defects), was employed in the present invention to evaluate the effect of conjugate A04 in rescuing the learning and memory ability of the model drosophila.
Pavlovian olfactory memory platform was improved from the literatures (see Tully, T. et al., Classical conditioning and retention in normal and mutant Drosophila melanogaster. (1985) J. Comp. Physiol. A 157: 263-277; Tully, T. et al., Genetic dissection of consolidated memory in Drosophila. (1994) Cell 79: 35-47; Yin, J. C. et al., Induction of a dominant negative CREB transgene specifically blocks long-term memory in Drosophila. (1994) Cell 79: 49-58). The learning and memory test was performed in a behavior room having a constant temperature and humidity (25° C. and 70% relative humidity). The test comprises two stages:
training stage: about a hundred drosophilas were placed into a training tube covered with copper net inside, and the drosophilas sequentially smelt two odors (octanol (OCT) and methylcyclohexanol (MCH)). Each odor lasted for 1 minute, and after each of the odors, 45 seconds of fresh air were passed through. The drosophilas were subjected to 1 minute of electric shock only when it smelt the first odor. Such a set of procedures constituted a training cycle. In order to avoid the natural preference of the drosophilas for odors, one tube of the drosophilas smelt OCT first and then received an electric shock at each data point, while the other tube of the drosophilas smelt MCH first and then received an electric shock, and the mean value of the test results of the 2 tubes of drosophilas was a data point.
test stage: the drosophilas were immediately transferred to the selection point of a T-maze after the training, and then they were made to choose between the containers of the two odors within two minutes. After 2 minutes, the numbers of drosophilas in different containers were respectively counted, and the performance index (PI) was calculated. […]

The subject of data set [3] is APP/PS1 transgenic AD model mice. Kind of data set: Morris water maze test, memory impairment of APP/PS1 transgenic AD model mice. It is filed as in vivo. To be noted: 50 mg/kg/day by gastric gavage for 60 days, versus solvent-treated transgenic mice, FIG. 3. The protocol:
In the present invention, conjugate A04 was administered by gastric gavage to APP/PS1 transgenic AD model mice, and then the effect of conjugate A04 on the memory impairment of transgenic AD model mice was detected through the classic Morris water maze test.
In this experiment, APP/PS1 double transgenic AD model mice, which developed Aβ deposition when they were about 6 months old, and had impairment on the space memory when they were about 7 months old, were employed. Therefore, in this experiment, the impairment on the space memory of the mice was further detected via the water maze test, and at the same time, whether conjugate A04 has a therapeutic or improving effect on the memory impairment was evaluated.
1) Identification of APP/PS1 double transgenic AD model mice: the mice's tail was snipped off, then the gene sequence of APP/PS1 in mice was identified by PCR. The wild type C57 (B6C3) mice were used as the negative control mice. […]
3) Morris water maze test: a mixture of water and fresh milk at a temperature of 19-20° C. was injected into a white round pool with a diameter of 120 centimeters daily in the test. […] The motion track and speed of the mice were automatically recorded by Anymaze and the matched camera. The average time of searching the platform in the four tests per day was recorded as the time for searching the platform on that day (latent period). […]

Counter-ions that a name gives are not always drawn.

The results in this text go back to patent US10441565B2, “Conjugate of memantine and arctigenin, and composition and use thereof” (Shenzhen Qingyaqirui Bio-Tech Co., Ltd., priority 2015, dated 2019).

Turning to `COc1cc(C[C@H]2C(=O)OC[C@@H]2Cc2ccc(OC)c(OC)c2)ccc1O` [ATG, arctigenin], the oral bioavailability result in data set [1] (according to further investigations of the present inventors) was “poor”. In data set [1] (rats, 20 mg/kg ATG by gastric gavage, lower detection limit 1.0 ng/ml), this compound displayed an ATG plasma concentration of under 1.0 ng/mL.

For the compound `COc1ccc(C[C@H]2COC(=O)[C@@H]2Cc2ccc(OC(=O)NCCNC(=O)[C@@H](N)COC(=O)NC34CC5CC(C)(CC(C)(C5)C3)C4)c(OC)c2)cc1OC` [Conjugate A04], the “rescue effect on the memory impairment of AD drosophilas compared with Mem” value in data set [2] (100 μM, 7 days, FIG. 2) was “better rescue effect on the memory impairment of AD drosophilas than Mem”. The “latent period in the Morris water maze test” value in data set [3] was “significantly shorter than that of the transgenic mice treated with the solvent”.

`CC12CC3CC(C)(C1)CC(N)(C3)C2` [Mem, memantine]: the “performance index (PI)” value in data set [2] (AD drosophilas, 100 μM in 4% sucrose, 4 hours per day for 7 days, AD negative control PI 41, genetic control 19 higher) was 55. Also, the rescue effect entry in data set [2] (AD drosophilas, negative control group 0%, genetic control group 100%) is recorded as “more than 50%”.

With `CC12CC3CC(C)(C1)CC(N)(C3)C2` [memantine hydrochloride], the “latent period in the Morris water maze test” value in data set [3] is given as “no significant change compared with that of the transgenic AD model mice”.
